Test results from the supplement of paper PMC10949913.

Tests used:
Assay in all cases: area under concentration-response curve (viability) (AUC (a.u.)); higher = less active
Conditions in all cases: 48 h
CU-ACC2 = tested on: CU-ACC2
Procedure, shortened: (§1)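 Library compounds were tested at 11 concentrations against three adrenocortical carcinoma cell lines in 1,536-well plates. CellTiter-Glo luminescence was read after 48 h and normalised per plate to vehicle and empty-well controls. Only inhibitory or non-responding curve classes from fitted concentration-response curves contributed AC50 and area under the curve.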

CU-ACC1 = tested on: CU-ACC1
Procedure, shortened: as §1

NCI-H295R = tested on: NCI-H295R
Procedure, shortened: as §1

Structure (SMILES)	area under concentration-response curve (CU-ACC2)	area under concentration-response curve (CU-ACC1)	area under concentration-response curve (NCI-H295R)
COc1cc([C@@H](CC(=O)O)c2ccc(C)c(CN3C[C@@H](C)Oc4ccccc4[S+]3(=O)[O-])c2)cc2nnn(C)c12	295	341	348
N[C@@H](CC(=O)N1CCn2c(nnc2C(F)(F)F)C1)Cc1cc(F)c(F)cc1F	597	554	555
CCOC(=O)c1c(/C(C#N)=C\N)c2ccc(Cl)c(Cl)c2n1C	478	510	517
Cc1c(Cn2c(C)nc3c(C(=O)O)cc(N4CCOCC4)cc32)cccc1C(F)(F)F	524	444	519
COC1=CC=CC=C1C2=CC=CC(=C2)C/3=C(O)/C4=CC(=C(Cl)C=C4NC3=O)C#N	589	542	562
C[C@]\1(CCS\C(=N1)N)C2=CC(=C(F)C=C2F)C3=CN=CN=C3	544	478	509
CCC(=O)O[C@@]1([C@H](C)C[C@H]2[C@@H]3C[C@H](F)\C4=C\C(=O)\C=C/[C@]4(C)[C@@]3(F)[C@@H](O)C[C@]12C)C(=O)SCF	484	372	510
COc1cc2nccc(Oc3ccc(NC(=O)NC4CC4)c(Cl)c3)c2cc1C(N)=O	623	516	582
O=C1CC[C@@]2(O)[C@H]3Cc4ccc(O)c5c4[C@@]2(CCN3CC2CC2)[C@H]1O5	623	413	559
Cc1cn2cc(C(=O)N(C)CCO)cc(N[C@@H]3CCOc4cccc(C)c43)c2n1	620	534	581
O=C(O)CNC(=O)C1C(=O)N(C2CCCCC2)C(=O)N(C2CCCCC2)C1=O	483	473	479
Cn1cc(-c2ccc3nnc(Sc4ccc5ncccc5c4)n3n2)cn1	447	516	525
C[C@H](Nc1ncnc2[nH]cnc12)c1cc2ccc(F)cc2nc1-c1ccccn1	571	466	512
Cc1cccc(-c2nn3c(c2-c2ccnc4ccc(C(N)=O)cc24)CCC3)n1	628	546	575
Cn1c(=O)c2c(ncn2C)n(C)c1=O	533	479	498
COc1ccc(-c2ccc3cc(C(=O)O)ccc3c2)cc1C12CC3CC(CC(C3)C1)C2	518	477	479
[O-][S+]1(=O)/N=C(/NC2=CC(=CC=C2)NC(=O)CCl)C3=CC=CC=C13	557	446	528
CC1=CC/2=C(C=C1C)N(C[C@@H](O)[C@@H](O)[C@@H](O)CO)C/3=N/C(=O)NC(=O)C3=N2	586	481	505
Nc1ncnc2c1ncn2[C@@H]1O[C@H](CO)[C@@H](O)[C@@H]1O	582	496	515
NC/1=N/C(=O)C/2=C(/NCC3CN(CN23)C4=CC=C(C=C4)C(=O)N[C@@H](CCC(O)=O)C(O)=O)N1 (some centres not stated)	565	475	526
Cc1ccc(Nc2nccc(N(C)c3ccc4c(C)n(C)nc4c3)n2)cc1[S+](N)(=O)[O-]	620	516	570
Cc1nc2c([nH]1)-c1ccccc1N(C(=O)c1ccc(NC(=O)c3ccccc3-c3ccccc3)cc1)CC2	542	437	487
CC[C@H](C)C(=O)O[C@H]1C[C@@H](C)\C=C2\C=C/[C@H](C)[C@H](CC[C@@H]3C[C@@H](O)CC(=O)O3)[C@@H]12	647	576	576
OC[C@H]1O[C@@H](O[C@@H]2[C@@H](CO)O[C@](O)(CO)[C@H]2O)[C@H](O)[C@@H](O)[C@H]1O	569	508	532
COC1=C(N2CCNC(C)C2)C(=CC3=C1N(\C=C(C(O)=O)/C3=O)C4CC4)F (configuration not stated)	609	543	509
CN(C)CC/C=C1/c2ccccc2COc2ccc(CC(=O)O)cc21	570	467	509
CN1CCN(C(=O)c2ccc(-c3ccc4c(C=O)c(O)ccc4c3)s2)CC1	612	499	556
Cc1cnc(Nc2cccc(CN3CCOCC3)c2)nc1Nc1cccc([S+](=O)([O-])NC(C)(C)C)c1	508	453	467
CN(N=O)C(=O)N[C@@H]1[C@@H](O)[C@H](O)[C@@H](CO)O[C@@H]1O	590	502	548
